Assay results taken from patent publication US12060349B2, “Glucosylceramide synthase inhibitors” (Genzyme Corporation, priority 2012, dated 2024).
Read-outs that look alike come from different tables or passages of the source.

Columns and labels:
[1] = target: T1, glucosylceramide synthase (Homo sapiens, UniProt Q16739); experiment: microsomal assay measuring conversion of ceramide to glucosylceramide by HPLC (GCS IC50); format: biochemical; settings: concentration causing 50% inhibition of glucosylceramide synthase activity
T1 construct: Microsomes were isolated from A375 human melanoma cells; endogenous in cells; host or cells: A375 human melanoma cells (microsomal fraction, 100,000 g pellet)
T1 sequence (Q16739 1-394): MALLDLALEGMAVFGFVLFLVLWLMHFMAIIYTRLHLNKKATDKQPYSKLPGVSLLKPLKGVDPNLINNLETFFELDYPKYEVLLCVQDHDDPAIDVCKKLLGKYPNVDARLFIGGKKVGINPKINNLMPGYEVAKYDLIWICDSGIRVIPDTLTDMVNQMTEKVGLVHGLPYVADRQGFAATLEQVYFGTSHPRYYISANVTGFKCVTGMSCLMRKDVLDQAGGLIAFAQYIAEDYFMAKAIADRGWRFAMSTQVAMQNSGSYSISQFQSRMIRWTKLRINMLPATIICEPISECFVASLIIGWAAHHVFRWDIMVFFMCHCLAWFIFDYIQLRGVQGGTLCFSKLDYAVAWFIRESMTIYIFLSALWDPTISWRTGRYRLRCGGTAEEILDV
Method in brief: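 Microsomal preparation assayed for glucosylceramide synthase by direct HPLC measurement of ceramide conversion to glucosylceramide. GCS IC50 is the compound concentration giving 50% inhibition of enzyme activity.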

[2] = tested on: GM3 expression on the cell surface, B16 mouse melanoma cells; experiment: cell based phenotypic assay, cell surface GM3 by antibody mediated immunofluorescence, B16 (GM3 B16 IC50); settings: Mus musculus, 50% inhibition of GM3 expression on the cell surface
Method in brief: (§1)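 Both lines undergo the phenotypic GM3 assay, and viability is recorded from that same cell-based run.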

[3] = tested on: GM3 expression on the cell surface, C32 human melanoma cells; experiment: cell based phenotypic assay, cell surface GM3 by antibody mediated immunofluorescence, C32 (GM3 C32 IC50); settings: Homo sapiens, 50% inhibition of GM3 expression on the cell surface
Method in brief: as §1

[4] = tested on: B16 mouse melanoma cells; experiment: cell viability in the B16 cell-based assay (Viability, B16 IC50); settings: Mus musculus
Method in brief: as §1

[5] = tested on: C32 human melanoma cells; experiment: cell viability in the C32 cell-based assay (Viability, C32 IC50); settings: Homo sapiens, concentration causing 50% cell death, values greater than 10 represent a lack of cell death
Method in brief: as §1

[6] = B16 mouse melanoma cells, read-out: GM3 B16 IC50
[7] = C32 human melanoma cells, read-out: GM3 C32 IC50
[8] = B16, B16 cells, concentration causing 50% cell death, values greater than 10 represent a lack of cell death, read-out: Viability, B16 IC50
[9] = C32, C32 cells, read-out: Viability, C32 IC50
[10] = read-out: GM3 B16 IC50, B16 mouse melanoma cells
[11] = read-out: GM3 C32 IC50, C32 human melanoma cells
[12] = B16, read-out: Viability, B16 IC50
[13] = C32, read-out: Viability, C32 IC50, C32 cells

Row | Compound | IC50 [1] | IC50 [2, 6] | IC50 [3, 7] | IC50 [4, 8] | IC50 [5, 9] | IC50 [2, 10] | IC50 [3, 11] | IC50 [4, 12] | IC50 [5, 13]
1 | CCC1(NC(=O)NC(C)(C)c2ccc(-c3ccc(S(=O)(=O)CCC(C)(C)C)cc3)cc2)CN2CCC1CC2 (stereo not drawn) [Example 247, 1-(2-(4′-((3,3-Dimethylbutyl)sulfonyl)-[1,1′-biphenyl]-4-yl)propan-2-yl)-3-(3-ethylquinuclidin-3-yl)urea] | 1.66 nM | 4.28 nM | 0.396 nM | 6640 nM | 1000 nM |  |  |  | 
2 | CC(C)(C)CCS(=O)(=O)c1ccc(-c2ccc(C(C)(C)NC(=O)NC3(C)CCN4CCC3CC4)cc2)cc1 (stereo not drawn) [Example 248, 1-(2-(4′-((3,3-Dimethylbutyl)sulfonyl)-[1,1′-biphenyl]-4-yl)propan-2-yl)-3-(4-methyl-1-azabicyclo[3.2.2]nonan-4-yl)urea] | 0.804 nM | 6.84 nM | 0.315 nM | 7730 nM | 1000 nM |  |  |  | 
3 | COCC1(CS(=O)(=O)c2ccc(-c3ccc(C(C)(C)NC(=O)OC4CN5CCC4CC5)cc3)cc2)CC1 (stereo not drawn) [Example 249, Quinuclidin-3-yl (2-(4′-(((1-(methoxymethyl)cyclopropyl)methyl)sulfonyl)-[1,1′-biphenyl]-4-yl)propan-2-yl)carbamate] | 53.5 nM |  |  |  |  | 247 nM | 5.82 nM | ≥ 10000 nM | 2150 nM
4 | CCC1(NC(=O)NC(C)(C)c2ccc(-c3ccc(S(=O)(=O)CC4(COC)CC4)cc3)cc2)CN2CCC1CC2 (stereo not drawn) [Example 250, 1-(3-Ethylquinuclidin-3-yl)-3-(2-(4′-(((1-(methoxymethyl)cyclopropyl)methyl)sulfonyl)-[1,1′-biphenyl]-4-yl)propan-2-yl)urea] | 20.1 nM | 84.5 nM | 4.41 nM | ≥ 10000 nM | 1000 nM |  |  |  | 
5 | CCCC1(NC(=O)NC(C)(C)c2ccc(-c3ccc(S(=O)(=O)CC4(COC)CC4)cc3)cc2)CN2CCC1CC2 (stereo not drawn) [Example 251, 1-(2-(4′-(((1-(Methoxymethyl)cyclopropyl)methyl)sulfonyl)-[1,1′-biphenyl]-4-yl)propan-2-yl)-3-(3-propylquinuclidin-3-yl)urea] | 21 nM | 47.5 nM | 5.01 nM | ≥ 10000 nM | 1000 nM |  |  |  | 
6 | CNC(=O)c1ccc(-c2ccc(C(C)(C)NC(=O)OC3CN4CCC3CC4)cc2)cc1 (stereo not drawn) [Example 252, Quinuclidin-3-yl (2-(4′-(methylcarbamoyl)-[1,1′-biphenyl]-4-yl)propan-2-yl)carbamate] | 1840 nM |  |  |  |  | 1500 nM | 220 nM | ≥ 10000 nM | ≥ 10000 nM
7 | CNC(=O)c1ccc(-c2ccc(C(C)(C)NC(=O)NC3(C)CN4CCC3CC4)cc2)cc1 (stereo not drawn) [Example 253, N-Methyl-4′-(2-(3-(3-methylquinuclidin-3-yl)ureido)propan-2-yl)-[1,1′-biphenyl]-4-carboxamide] | 751 nM | 2000 nM | 201 nM | 2000 nM | 2000 nM |  |  |  | 
8 | CNC(=O)c1ccc(-c2ccc(C(C)(C)NC(=O)OC3CCN4CCC3CC4)cc2)cc1 (stereo not drawn) [Example 254, 1-Azabicyclo[3.2.2]nonan-4-yl (2-(4′-(methylcarbamoyl)-[1,1′-biphenyl]-4-yl)propan-2-yl)carbamate] | 600 nM | 650 nM | 63.8 nM | ≥ 10000 nM | ≥ 10000 nM |  |  |  | 
9 | CNC(=O)c1ccc(-c2ccc(C(C)(C)NC(=O)NC3(C)CCN4CCC3CC4)cc2)cc1 (stereo not drawn) [Example 255, N-Methyl-4′-(2-(3-(4-methyl-1-aza-bicyclo[3.2.2]nonan-4-yl)ureido)propan-2-yl)biphenyl-4-carboxamide] | 46.9 nM | 3420 nM | 20.1 nM | 6790 nM | 1000 nM |  |  |  | 
10 | CNC(=O)c1ccc(-c2ccc(C(C)(C)NC(=O)N3CCN4CCC3CC4)cc2)cc1 [Example 256, N-(2-(4′-(Methylcarbamoyl)biphenyl-4-yl)propan-2-yl)-1,4-diazabicyclo[3.2.2]nonane-4-carboxamide] | 12300 nM | 4440 nM | 729 nM | ≥ 10000 nM | ≥ 10000 nM |  |  |  | 
11 | CN(C)C(=O)c1ccc(-c2ccc(C(C)(C)NC(=O)OC3CN4CCC3CC4)cc2)cc1 (stereo not drawn) [Example 257, Quinuclidin-3-yl 2-(4′-(dimethylcarbamoyl)biphenyl-4-yl)propan-2-ylcarbamate] | 365 nM |  |  |  |  | 786 nM | 77.2 nM | ≥ 10000 nM | ≥ 10000 nM
12 | CN(C)C(=O)c1ccc(-c2ccc(C(C)(C)NC(=O)NC3(C)CN4CCC3CC4)cc2)cc1 (stereo not drawn) [Example 258, N,N-Dimethyl-4′-(2-(3-(3-methylquinuclidin-3-yl)ureido)propan-2-yl)biphenyl-4-carboxamide] | 281 nM | 2340 nM | 49 nM | ≥ 10000 nM | ≥ 10000 nM |  |  |  | 
13 | CN(C)C(=O)c1ccc(-c2ccc(C(C)(C)NC(=O)OC3CCN4CCC3CC4)cc2)cc1 (stereo not drawn) [Example 259, 1-Azabicyclo[3.2.2]nonan-4-yl 2-(4′-(dimethylcarbamoyl)biphenyl-4-yl)propan-2-ylcarbamate] | 134 nM | 179 nM | 20.5 nM | ≥ 10000 nM | ≥ 10000 nM |  |  |  | 
14 | CN(C)C(=O)c1ccc(-c2ccc(C(C)(C)NC(=O)N3CCN4CCC3CC4)cc2)cc1 [Example 260, N-(2-(4′-(Dimethylcarbamoyl)biphenyl-4-yl)propan-2-yl)-1,4-diazabicyclo[3.2.2]nonane-4-carboxamide] | 8550 nM | 1640 nM | 302 nM | ≥ 10000 nM | ≥ 10000 nM |  |  |  | 
15 | CN(C)C(=O)c1ccc(-c2ccc(C(C)(C)NC(=O)NC3(C)CCN4CCC3CC4)cc2)cc1 (stereo not drawn) [Example 261, N,N-Dimethyl-4′-(2-(3-(4-methyl-1-azabicyclo[3.2.2]nonan-4-yl)ureido)propan-2-yl)biphenyl-4-carboxamide] | 60.8 nM | 354 nM | 14.1 nM | ≥ 10000 nM | 3160 nM |  |  |  | 
16 | CC(C)(NC(=O)OC1CN2CCC1CC2)c1ccc(-c2ccc(C(=O)N3CCCCC3)cc2)cc1 (stereo not drawn) [Example 262, Quinuclidin-3-yl 2-(4′-(piperidine-1-carbonyl)biphenyl-4-yl)propan-2-ylcarbamate] | 19.6 nM |  |  |  |  | 112 nM | 3.5 nM | ≥ 10000 nM | 1000 nM
17 | CC(C)(NC(=O)OC1CCN2CCC1CC2)c1ccc(-c2ccc(C(=O)N3CCCCC3)cc2)cc1 (stereo not drawn) [Example 263, 1-Azabicyclo[3.2.2]nonan-4-yl 2-(4′-(piperidine-1-carbonyl)biphenyl-4-yl)propan-2-ylcarbamate] | 14.5 nM | 75 nM | 3.01 nM | ≥ 10000 nM | 1000 nM |  |  |  | 
18 | CCC1(NC(=O)NC(C)(C)c2ccc(-c3ccc(C(=O)N4CCCCC4)cc3)cc2)CN2CCC1CC2 (stereo not drawn) [Example 264, 1-(3-Ethylquinuclidin-3-yl)-3-(2-(4′-(piperidine-1-carbonyl)biphenyl-4-yl)propan-2-yl)urea] | 13.7 nM | 67.4 nM | 2.13 nM | ≥ 10000 nM | 1000 nM |  |  |  | 
19 | CC(C)(NC(=O)OC1CN2CCC1CC2)c1ccc(-c2ccc(C(=O)N3CCOCC3)cc2)cc1 (stereo not drawn) [Example 265, Quinuclidin-3-yl 2-(4′-(morpholine-4-carbonyl)biphenyl-4-yl)propan-2-ylcarbamate] | 480 nM |  |  |  |  | 454 nM | 39.9 nM | ≥ 10000 nM | 2150 nM
20 | CC(C)(NC(=O)OC1CCN2CCC1CC2)c1ccc(-c2ccc(C(=O)N3CCOCC3)cc2)cc1 (stereo not drawn) [Example 266, 1-Azabicyclo[3.2.2]nonan-4-yl 2-(4′-(morpholine-4-carbonyl)biphenyl-4-yl)propan-2-ylcarbamate] | 399 nM | 284 nM | 22.7 nM | ≥ 10000 nM | 1000 nM |  |  |  | 
21 | CC(C)(NC(=O)NC1(C)CN2CCC1CC2)c1ccc(-c2ccc(C(=O)N3CCOCC3)cc2)cc1 (stereo not drawn) [Example 267, 1-(3-Methylquinuclidin-3-yl)-3-(2-(4′-(morpholine-4-carbonyl)biphenyl-4-yl)propan-2-yl)urea] | 363 nM | 2770 nM | 119 nM | 565 nM | ≥ 10000 nM |  |  |  | 
